Experimental data reported in US20210400967A1, “COMPOSITIONS COMPRISING PYRIDINE CARBOXYLATE HERBICIDES WITH GLYPHOSATE OR GLUFOSINATE” (Corteva Agriscience LLC, priority 2018, published 2021).

Key:
Assay type in all cases: in vivo
[1] = test system: Cirsium arvense (Canadian thistle); experiment: Greenhouse postemergence herbicidal effect, Canadian thistle (CIRAR); details: 20-22 d
Description: (§1) Greenhouse Trial Methodology—Evaluation of Postemergence Herbicidal Effect
(§2) Seeds of the desired test plant species were planted in a 90:10% v/v (volume/volume) mixture of PRO-MIX® BX (Premier Tech Horticulture, Quakertown, Pa., USA) and PROFILE® GREENS GRADE™ (Profile Products LLC, Buffalo Grove, Ill., USA) planting mixture, which typically has a pH of 5.2 to 6.2 and an organic matter content of at least 50 percent, in plastic pots with a surface area of 103.2 square centimeters (cm^2). In some aspects, to ensure good germination and healthy plants, a fungicide treatment and/or other chemical or physical treatment was applied. The plants were grown for 7-36 days (d) in a greenhouse with an approximate 14-hour (h) photo-period which was maintained at about 23° C. during the day and 22° C. during the night. Nutrients and water were added on a regular basis and supplemental lighting was provided with overhead metal halide 1000-Watt lamps as necessary. The plants were employed for testing when they reached the second or third true leaf stage.
(§3) Emulsifiable concentrates of each of each pyridine carboxylate herbicide (Compound A or Compound B) were prepared at 100 grams acid equivalent per liter (g ae/L). The emulsifiable concentrates also included a safener, cloquintocet-mexyl, at 120 grams active ingredient per liter (g ai/L). An aliquot of each emulsifiable concentrate was placed in a 25 mL glass vial and diluted with an aqueous mixture of 1.25% (v/v) ACTIROB® B esterified rapeseed oil (Bayer Crop Science, Research Triangle Park, N.C., USA) or MSO® Concentrate with LECI-TECH® methylated soybean oil (Loveland Products, Loveland, Colo., USA) to obtain concentrated stock solutions at the highest application rate for each herbicide, based upon a 12 milliliter (mL) application volume at a rate of 187 liters per hectare (L/ha). The concentrated stock solutions were further diluted with an aqueous mixture of 1.25% v/v ACTIROB® B or MSO® Concentrate with LECI-TECH® to obtain stock solutions at reduced application rates for each herbicide. Spray solutions of the herbicide combinations (Compound A or Compound B plus glyphosate or glufosinate) were prepared by adding weighed amounts or aliquots of the glyphosate or glufosinate to the stock solutions of Compound A or Compound B to form 12-mL spray solutions in two-way combinations.
(§4) The spray solutions were applied to the plant material with an overhead Mandel track sprayer equipped with 8002E nozzles calibrated to deliver 187 L/ha over an application area of 0.503 square meters (m^2) at a spray height of 18 inches (43 centimeters (cm)) above the average plant canopy. Control plants were sprayed in the same manner with the solvent blank. All pyridine carboxylate herbicide (component a) application rates are given as “g ae/ha” and all glyphosate or glufosinate (component b) application rates are given as “g ai/ha.”
(§5) The treated plants and control plants were placed in a greenhouse as described above and watered by sub-irrigation to prevent wash-off of the test compounds. After 20-22 d, the condition of the test plants as compared with that of the control plants was determined visually and scored on a scale of 0 to 100 percent where 0 corresponds to no injury and 100 corresponds to complete kill.

[2] = test system: Chenopodium album L. (common lambsquarters); experiment: Greenhouse postemergence herbicidal effect, common lambsquarters (CHEAL); details: 20-22 d
Description: as §1, §2, §3, §4, §5

[3] = test system: Viola tricolor (wild pansy); experiment: Greenhouse postemergence herbicidal effect, wild pansy (VIOTR); details: Example 4, 20-22 d
Description: as §1, §2, §3, §4, §5

[4] = test system: Kochia scoparia (kochia); experiment: Greenhouse postemergence herbicidal effect, kochia (KCHSC); details: 20-22 d
Description: as §1, §2, §3, §4, §5

[5] = test system: Brassica napus (spring rape); experiment: Greenhouse postemergence herbicidal effect, spring rape (BRSNN); details: 20-22 d
Description: as §1, §2, §3, §4, §5

[6] = test system: Setaria faberi (giant foxtail); experiment: Greenhouse postemergence herbicidal effect, giant foxtail (SETFA); details: 20-22 d
Description: as §1, §2, §3, §4, §5

[7] = test system: Abutilon theophrasti (velvetleaf); experiment: Greenhouse postemergence herbicidal effect, velvetleaf (ABUTH); details: Example 4, 20-22 d
Description: as §1, §2
Emulsifiable concentrates of each of each pyridine carboxylate herbicide (Compound A or Compound B) were prepared at 100 grams acid equivalent per liter (g ae/L). The emulsifiable concentrates also included a safener, cloquintocet-mexyl, at 120 grams active ingredient per liter (g ai/L). […]
as §5

[8] = test system: Polygonum convolvulus (wild buckwheat); experiment: Greenhouse postemergence herbicidal effect, wild buckwheat (POLCO); details: 20-22 d
Description: as §1, §2, §3, §4, §5

[9] = Example 3, Compound B 7.5 g ae/ha alone
[10] = Example 3, Compound B 10 g ae/ha alone
[11] = Example 4, Compound B 7.5 g ae/ha alone
[12] = Example 4, Compound B 10 g ae/ha alone

## C#CCOC(=O)c1nc(-c2ccc3cc[nH]c3c2F)c(F)c(N)c1Cl [Compound B, propargyl 4-amino-3-chloro-5-fluoro-6-(7-fluoro-1H-indol-6-yl)pyridine-2-carboxylate]
[1]; [9]
  % visual injury, Obs: 45%
[1]; [10]
  % visual injury, Obs: 45%
[1]; [11]
  % visual injury, Obs: 45%
[1]; [12]
  % visual injury, Obs: 45%
[2]; [9]
  % visual injury, Obs: 85%
[2]; [10]
  % visual injury, Obs: 90%
[2]; [11]
  % visual injury, Obs: 85%
[2]; [12]
  % visual injury, Obs: 90%
[3]; Compound B 7.5 g ae/ha alone
  % visual injury, Obs: 10%
[3]; Compound B 10 g ae/ha alone
  % visual injury, Obs: 40%
[4]; [9]
  % visual injury, Obs: 68%
[4]; [10]
  % visual injury, Obs: 80%
[4]; [11]
  % visual injury, Obs: 68%
[4]; [12]
  % visual injury, Obs: 80%
[5]; [9]
  % visual injury, Obs: 68%
[5]; [10]
  % visual injury, Obs: 85%
[5]; [11]
  % visual injury, Obs: 68%
[5]; [12]
  % visual injury, Obs: 85%
[6]; [9]
  % visual injury, Obs: 70%
[6]; [10]
  % visual injury, Obs: 55%
[6]; [11]
  % visual injury, Obs: 70%
[6]; [12]
  % visual injury, Obs: 55%
[7]; Compound B 7.5 g ae/ha alone
  % visual injury, Obs: 68%
[7]; Compound B 10 g ae/ha alone
  % visual injury, Obs: 68%
[8]; [9]
  % visual injury, Obs: 73%
[8]; [10]
  % visual injury, Obs: 80%
[8]; [11]
  % visual injury, Obs: 73%
[8]; [12]
  % visual injury, Obs: 80%
